Data reported in patent publication US6900219B2, “ABCA-1 elevating compounds” (CV Therapeutics, Inc., priority 2002, dated 2005).

System: ABCA-1 gene
Test: compounds tested and found to elevate cellular expression of the ABCA-1 gene (Examples 1-6; test not named)
Assay type: cell-based
Experimental: Activity testing is conducted as described in those patents and patent applications referenced above, and in the Examples below, and by methods apparent to one skilled in the art.

Compound: Cc1ccc(C(=O)NCCc2ccccn2)cc1 [(4-methylphenyl)-N-(2-(2-pyridyl)ethyl)carboxamide]
- cellular expression of the ABCA-1 gene: elevate cellular expression of the ABCA-1 gene

Compound: O=C(Nc1nc2c(Cl)cccc2s1)c1ccco1 [N-(4-chlorobenzothiazol-2-yl)-2-furylcarboxamide]
- cellular expression of the ABCA-1 gene: elevate cellular expression of the ABCA-1 gene

Compound: Cc1ccc(NC(=O)c2ccc3ccccc3c2)cc1C [N-(3,4-dimethylphenyl)-2-naphthylcarboxamide]
- cellular expression of the ABCA-1 gene: elevate cellular expression of the ABCA-1 gene

Compound: Nc1ccccc1C(=O)Nc1ccc(Cl)cc1 [(2-aminophenyl)-N-(4-chlorophenyl)carboxamide]
- cellular expression of the ABCA-1 gene: elevate cellular expression of the ABCA-1 gene

Compound: O=C(NCC1CCCCC1)Nc1ccc2c(c1)CCC2 [[(cyclohexylmethyl)amino]-N-indan-5-ylcarboxamide]
- cellular expression of the ABCA-1 gene: elevate cellular expression of the ABCA-1 gene

Compound: CC(C)(C)c1ccc(C(=O)NC2=NC(=O)CS2)cc1 [[4-(tert-butyl)phenyl]-N-(4-oxo(1,3-thiazolin-2-yl))carboxamide]
- cellular expression of the ABCA-1 gene: elevate cellular expression of the ABCA-1 gene

Compound: O=C(Nc1ncc(-c2ccc(F)cc2)s1)c1cccs1 [N-[5-(4-fluorophenyl)(1,3-thiazol-2-yl)]-2-thienylcarboxamide]
- cellular expression of the ABCA-1 gene: elevate cellular expression of the ABCA-1 gene

Compound: Cc1c(C(=O)NCCc2ccccc2)cnn1-c1nc(-c2ccc(F)cc2)cs1 [{5-methyl-1-[4-(4-fluorophenyl)(1,3-thiazol-2-yl)]pyrazol-4-yl}-N-(2-phenylethyl)carboxamide]
- cellular expression of the ABCA-1 gene: elevate cellular expression of the ABCA-1 gene

Compound: O=C(Cc1cccs1)Nc1ncc(-c2ccccc2)s1 [N-(5-phenyl(1,3-thiazol-2-yl))-2-(2-thienyl)acetamide]
- cellular expression of the ABCA-1 gene: elevate cellular expression of the ABCA-1 gene

Compound: COc1cccc(C(=O)NC2=NC(C(=O)O)CS2)c1 (centres unmarked) [2-[(3-methoxyphenyl)carbonylamino]-1,3-thiazoline-4-carboxylic acid]
- cellular expression of the ABCA-1 gene: elevate cellular expression of the ABCA-1 gene

Compound: Cc1ccc(C(=O)NC2=NC(=O)CS2)cc1 [(4-methylphenyl)-N-(4-oxo(1,3-thiazolin-2-yl))carboxamide]
- cellular expression of the ABCA-1 gene: elevate cellular expression of the ABCA-1 gene

Compound: O=C(Nc1ncc(-c2ccccc2)s1)C1CCCC1 [cyclopentyl-N-(5-phenyl(1,3-thiazol-2-yl))carboxamide]
- cellular expression of the ABCA-1 gene: elevate cellular expression of the ABCA-1 gene

Compound: (2,4-difluorophenyl)-N-(4-naphthyl(1,3-thiazol-2-yl))carboxamide
- cellular expression of the ABCA-1 gene: elevate cellular expression of the ABCA-1 gene

Compound: CCCCN(CC(=O)N1CCc2ccccc2C1)C(=O)Nc1cccc(Cl)c1Cl [N-(2,3-dichlorophenyl)[butyl(2-oxo-2-(2-1,2,3,4-tetrahydroisoquinolyl)ethyl)amino]carboxamide]
- cellular expression of the ABCA-1 gene: elevate cellular expression of the ABCA-1 gene

Compound: Cc1ccc(-c2csc(-n3ncc(C(=O)NC(C)c4ccccc4)c3C(C)C)n2)cc1 (centres unmarked) [5-isopropyl-1-(4-p-tolyl-thiazol-2-yl)-1H-pyrazole-4-carboxylic acid (1-phenyl-ethyl)-amide]
- cellular expression of the ABCA-1 gene: elevate cellular expression of the ABCA-1 gene

Compound: Cc1ccc2nc(/C(C#N)=C/c3ccco3)[nH]c2c1 [(2E)-3-(2-furyl)-2-(5-methylbenzimidazol-2-yl)prop-2-enenitrile]
- cellular expression of the ABCA-1 gene: elevate cellular expression of the ABCA-1 gene

Compound: CCc1c(C(=O)NCC(C)C)cnn1-c1nc(-c2ccc(Br)cc2)cs1 [{1-[4-(4-bromophenyl)(1,3-thiazol-2-yl)]-5-ethylpyrazol-4-yl}-N-(2-methylpropyl)carboxamide]
- cellular expression of the ABCA-1 gene: elevate cellular expression of the ABCA-1 gene

Compound: O=C(Nc1ncc(-c2ccccc2)s1)c1ccc2ccccc2c1 [2-naphthyl-N-(5-phenyl(1,3-thiazol-2-yl))carboxamide]
- cellular expression of the ABCA-1 gene: elevate cellular expression of the ABCA-1 gene

Compound: CC(C)(C)c1ccc(C(=O)Nc2ccc3c(c2)OCCO3)cc1 [N-(2H,3H-benzo[e]1,4-dioxin-6-yl)[4-(tert-butyl)phenyl]carboxamide]
- cellular expression of the ABCA-1 gene: elevate cellular expression of the ABCA-1 gene

Compound: CCOC(=O)C1CCCCN1C(=O)c1ccc2c(c1)OCO2 (centres unmarked) [ethyl 1-(2H-benzo[d]1,3-dioxolen-5-ylcarbonyl)piperidine-2-carboxylate]
- cellular expression of the ABCA-1 gene: elevate cellular expression of the ABCA-1 gene

Compound: COc1ccc(C(=O)N(CCc2ccccc2)Cc2c3ccccc3cc3ccccc23)cc1 [N-(9-anthrylmethyl)(4-methoxyphenyl)-N-(2-phenylethyl)carboxamide]
- cellular expression of the ABCA-1 gene: elevate cellular expression of the ABCA-1 gene

Compound: O=C(Nc1nc(-c2ccc3ccccc3c2)cs1)C1CCCC1 [cyclopentyl-N-(4-(2-naphthyl)(1,3-thiazol-2-yl))carboxamide]
- cellular expression of the ABCA-1 gene: elevate cellular expression of the ABCA-1 gene

Compound: O=C(Nc1ccc(Cl)cc1)NC1CCCCC1 [[(4-chlorophenyl)amino]-N-cyclohexylcarboxamide]
- cellular expression of the ABCA-1 gene: elevate cellular expression of the ABCA-1 gene

Compound: CCc1ccc(N(Cc2c3ccccc3cc3ccccc23)C(=O)Nc2ccccc2F)cc1 [N-(9-anthrylmethyl)-N-(4-ethylphenyl)[(2-fluorophenyl)amino]carboxamide]
- cellular expression of the ABCA-1 gene: elevate cellular expression of the ABCA-1 gene

Compound: O=C(Nc1nccs1)c1ccc(OC(F)(F)F)cc1 [N-(1,3-thiazol-2-yl)[4-(trifluoromethoxy)phenyl]carboxamide]
- cellular expression of the ABCA-1 gene: elevate cellular expression of the ABCA-1 gene

Compound: COc1cc(C(=O)NC2=NC(C(=O)O)CS2)cc(OC)c1OC (centres unmarked) [2-[(3,4,5-trimethoxyphenyl)carbonylamino]-1,3-thiazoline-4-carboxylic acid]
- cellular expression of the ABCA-1 gene: elevate cellular expression of the ABCA-1 gene

Compound: CN(C)c1ccc(C(=O)NC2=NC(=O)CS2)cc1 [[4-(dimethylamino)phenyl]-N-(4-oxo(1,3-thiazolin-2-yl))carboxamide]
- cellular expression of the ABCA-1 gene: elevate cellular expression of the ABCA-1 gene

Compound: O=C(Nc1ncc(-c2ccccc2)s1)c1ccno1 [isoxazol-5-yl-N-(5-phenyl(1,3-thiazol-2-yl))carboxamide]
- cellular expression of the ABCA-1 gene: elevate cellular expression of the ABCA-1 gene

Compound: O=C(NC1=NCCS1)c1ccc(Cl)c(Cl)c1 [(3,4-dichlorophenyl)-N-(1,3-thiazolin-2-yl)carboxamide]
- cellular expression of the ABCA-1 gene: elevate cellular expression of the ABCA-1 gene

Compound: O=C(Nc1ccc(Cl)cc1)Nc1ccccc1C(=O)O [2-{[N-(4-chlorophenyl)carbamoyl]amino}benzoic acid]
- cellular expression of the ABCA-1 gene: elevate cellular expression of the ABCA-1 gene

Compound: {1-[4-(3-methoxyphenyl)(1,3-thiazol-2-yl)]-5-methylpyrazol-4-yl}-N-(methylethyl)carboxamide
- cellular expression of the ABCA-1 gene: elevate cellular expression of the ABCA-1 gene

Compound: CCC(c1nc2ccccc2c(=O)n1-c1ccc(C)c(C)c1)N(Cc1ccccc1)C(=O)Nc1ccc(OC)cc1 (centres unmarked) [N-{[3-(3,4-dimethylphenyl)-4-oxo(3-hydroquinazolin-2-yl)]propyl}[(4-methoxyphenyl)amino]-N-benzylcarboxamide]
- cellular expression of the ABCA-1 gene: elevate cellular expression of the ABCA-1 gene

Compound: O=C(Nc1ccc(Cl)c(Cl)c1)Nc1ccc2c(c1)OCCO2 [N-(2H,3H-benzo[e]1,4-dioxin-6-yl)[(3,4-dichlorophenyl)amino]carboxamide]
- cellular expression of the ABCA-1 gene: elevate cellular expression of the ABCA-1 gene

Compound: COc1ccc(C(=O)NCCc2ccccn2)cc1 [(4-methoxyphenyl)-N-(2-(2-pyridyl)ethyl)carboxamide]
- cellular expression of the ABCA-1 gene: elevate cellular expression of the ABCA-1 gene

Compound: CCOC(=O)C1=C(NCCc2ccccc2)CCN(C(=O)c2ccc(C(C)(C)C)cc2)C1 [ethyl 1-[(4-t-butylphenyl)carbonyl]-4-[(2-phenylethyl)amino]-1,2,5,6-tetrahydropyridine-3-carboxylate]
- cellular expression of the ABCA-1 gene: elevate cellular expression of the ABCA-1 gene

Compound: CN(C)c1ccc(C(=O)NC2=NCCS2)cc1 [[4-(dimethylamino)phenyl]-N-(1,3-thiazolin-2-yl)carboxamide]
- cellular expression of the ABCA-1 gene: elevate cellular expression of the ABCA-1 gene

Compound: CCCCNC(=O)Nc1nc2ccccc2s1 [N-benzothiazol-2-yl(butylamino)carboxamide]
- cellular expression of the ABCA-1 gene: elevate cellular expression of the ABCA-1 gene

Compound: O=C(Nc1cccc(Cl)c1)Nc1nc2ccccc2s1 [N-benzothiazol-2-yl[(3-chlorophenyl)amino]carboxamide]
- cellular expression of the ABCA-1 gene: elevate cellular expression of the ABCA-1 gene

Compound: Cc1onc(-c2c(F)cccc2Cl)c1C(=O)Nc1nc2ccccc2s1 [N-benzothiazol-2-yl[3-(6-chloro-2-fluorophenyl)-5-methylisoxazol-4-yl]carboxamide]
- cellular expression of the ABCA-1 gene: elevate cellular expression of the ABCA-1 gene

Compound: COc1ccc(CCN(Cc2ccc(C(C)(C)C)cc2)C(=O)c2ccco2)cc1OC [N-[2-(3,4-dimethoxyphenyl)ethyl]-N-{[4-(tert-butyl)phenyl]methyl}-2-furylcarboxamide]
- cellular expression of the ABCA-1 gene: elevate cellular expression of the ABCA-1 gene

Compound: O=C(Nc1nccs1)c1ccccc1C(F)(F)F [2-trifluoromethylphenyl-N-(1,3-thiazol-2-yl)carboxamide]
- cellular expression of the ABCA-1 gene: elevate cellular expression of the ABCA-1 gene

Compound: COC(=O)c1ccc(C(=O)NC2=NC(=O)CS2)cc1 [methyl 4-[N-(4-oxo-1,3-thiazolin-2-yl)carbamoyl]benzoate]
- cellular expression of the ABCA-1 gene: elevate cellular expression of the ABCA-1 gene

Compound: Cc1ccc2nc(-c3ccc(NC(=O)Cc4cccs4)cc3)sc2c1 [N-[4-(6-methylbenzothiazol-2-yl)phenyl]-2-(2-thienyl)acetamide]
- cellular expression of the ABCA-1 gene: elevate cellular expression of the ABCA-1 gene

Compound: O=[N+]([O-])c1ccc(-c2cnc3ccc(Cl)cn23)cc1 [6-chloro-3-(4-nitrophenyl)-4-hydroimidazolo[1,2-a]pyridine]
- cellular expression of the ABCA-1 gene: elevate cellular expression of the ABCA-1 gene
